US8143282B2, “Heterocyclic compounds” (S*BIO Pte Ltd., priority 2005, dated 2012)

What was measured:
[1] = test system: HCT116; assay: Cell-based proliferation assay for GI50 (CyQUANT), HCT116; settings: Homo sapiens, HCT-116; HCT116, 96 h treatment; read-out: Cellular or Growth Inhibition Activity, GI50, HCT116
Description: (§1) Human colon cancer cell lines (Colo205, HCT116), Ovarian cancer cell line (A2780), Hepatoma cell line (HEP3B), Prostate cancer cell line (PC3) were obtained from ATCC or ECACC. Colo205 cells were cultivated in RPMI 1640 containing 2 mM L-Glutamine, 5% FBS, 1.0 mM Na Pyruvate, 1 U/ml of penicillin and 1 μg of streptomycin. HCT116 cells were cultivated in McCoy's containing RPMI 1640 containing 2 mM L-Glutamine, 5% FBS, 1 U/ml of penicillin and 1 μg of streptomycin. A2780 cells were cultivated in RPMI 1640 containing 2 mM L-Glutamine, 5% FBS, 1 U/ml of penicillin and 1 μg of streptomycin. HEP3B cells were cultivated in EMEM containing 2 mM L-glutamine, 5% FBS, 1% non essential amino acid, 1 mM Na Pyruvate, 1 U/ml of penicillin and 1 μg of streptomycin. PC3 cells were cultivated in F12K, 2 mM L-glutamine, 5% FBS, 1 U/ml of penicillin and 1 μg of streptomycin. PC3, Colo205, and HCT116 cells were seeded in 96-wells plate at 1000, 5000 and 6000 cells per well respectively. A2780 and HEP3B cells were seeded in 96-wells plate at 4000 cells per well respectively. The plates were incubated at 37° C., 5% CO2, for 24 h. Cells were treated with compounds at various concentrations for 96 h. Cell growth was then monitored using CyQUANT® cell proliferation assay (Invitrogen Pte Ltd). Dose response curves were plotted to determine GI50 values for the compounds using XL-fit (ID Business Solution, Emeryville, Calif.). GI50 is defined as the concentration of compound required for 50% inhibition of cell growth.

[2] = test system: A2780; assay: Cell-based proliferation assay for GI50 (CyQUANT), A2780; settings: Homo sapiens; A2780, 96 h treatment; read-out: Cellular or Growth Inhibition Activity, GI50, A2780
Description: as §1

[3] = test system: PC3; assay: Cell-based proliferation assay for GI50 (CyQUANT), PC3; settings: Homo sapiens, PC-3; PC3, 96 h treatment; read-out: Cellular or Growth Inhibition Activity, GI50, PC3
Description: as §1

[4] = test system: acetylated histone H3; assay: Histone H3 acetylation assay (immuno-blotting) in Colo205 cells; type: cell-based, Human; settings: 10 μM, 24 h, western-blot
Description: A hallmark of histone deacetylase (HDAC) inhibition is the increase in the acetylation level of histones. Histone acetylation, including H3, H4 and H2A can be detected by immuno-blotting (western-blot). Colo205 cells, approximately 5×10^5 cells, were seeded in the previously described medium, cultivated for 24 h and subsequently treated with HDAC inhibitory agents and a positive control at a final concentration of 10 μM. After 24 h, cells were harvested and lysed according to the instruction from Sigma Mammalian Cell Lysis Kit. The protein concentration was quantified using BCA method (Sigma Pte Ltd). The protein lysate was separated using 4-12% bis-tris SDS-PAGE gel (Invitrogen Pte Ltd) and was transferred onto PVDF membrane (BioRad Pte Ltd). The membrane was probed using primary antibody specific for acetylated histone H3 (Upstate Pte Ltd). The detection antibody, goat anti rabbit antibody conjugated with HRP was used according to the manufacturing instruction (Pierce Pte Ltd). After removing the detection antibody from the membrane, an enhanced chemiluminescent substrate for detection of HRP (Pierce Pte Ltd) was added onto the membrane. After removing the substrate, the membrane was exposed to an X-ray film (Kodak) for 1 sec-20 mins. The X-ray film was developed using the X-ray film processor. The density of each band observed on the developed film could be qualitatively analyzed using UVP Bioimaging software (UVP, Inc, Upland, Calif.). The values were then normalized against the density of actin in the corresponding samples to obtain the expression of the protein.

[5] = In vivo pharmacokinetic (PK) studies; settings: mouse, plasma, po; mice, hydrochloric acid salt form (2HCl), 50 mg/kg
Description: Compound was dissolved in appropriate solution (saline or DMA and Cremaphor in saline) at 1 mg/ml for intravenous (IV) administration, or in 0.5% methyl cellulose, 0.1% Tween 80 in water at 5 mg/ml for oral administration. Mice were randomized according to body weight, grouped three per time point. Mice were administered single IV dose (10 mg/kg) via tail vein, or single oral dose (50 mg/kg) via gavage. At pre-defined time points (predose, 5 or 10, 30 min, 1, 2, 4, 8, and 24 h), one group of mice was sacrificed by overdose CO2 and blood samples were collected by cardiac puncture. The blood samples were centrifuged immediately for 10 min at 3000 rpm to separate plasma, and plasma was kept frozen at −80° C. until analysis by LC/MS/MS. Before sample analysis, the method was developed for LC/MS/MS assay. The method was validated for signal-response of the calibration standards, auto-sampler stability for ˜15 hours intra-day and inter-day calibration curve using eight calibration standards excluding the blank plasma. QC samples at three different concentrations in triplicates were prepared to determine the accuracy and precision. The extracted QC samples were compared to unextracted samples to determine the extraction efficiency of the analyte. LLOQ was determined by using triplicate samples of 1 ng/mL and 2 ng/mL to obtain accuracy and precision at the low end. Samples were analysed using the validated method. Data was analyzed by the non-compartmental model using WinNolin 4.0 software (Pharsight, Mountain View, Calif., USA). The mean values for the plasma compound concentration-time profiles were used in mouse PK study.
The PK parameter AUC0-last providing the information on the overall exposure of the drug in vivo is one of the key PK/PD parameters that helps in predicting the efficacy of an anti-cancer compound. The higher the AUC value, the better will be the in vivo efficacy of the compound at similar in vitro potency.

GI50 [1]: < 0.5 µM | GI50 [2]: < 0.5 µM | GI50 [3]: < 0.5 µM | AUC(0-t) [5]: 1050 ng·h/mL
Compound: CCCc1nc2cc(/C=C/C(=O)NO)ccc2n1CCNCCC(C)(C)C [Compound 130, 3-{1-[2-(3,3-Dimethyl-butylamino)-ethyl]-2-propyl-1H-benzoimidazol-5-yl}-N-hydroxy-acrylamide]
Histone Acetylation activities (Histone-3) [4]: Active
